Source: ChEMBL document CHEMBL1201862, “PubChem BioAssay data set” (2004)
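Following 48 hours of exposure in 96-well plates, responses at five concentrations were used to interpolate endpoints linearly. At the GI50, growth is halved.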 Activity calls are given as the source filed them. No stated cut-off is given here; in the data, active = GI50 up to about 1.1 µM and inactive = higher.

What was measured:
Test in all cases: NCI anticancer screen, dose series, 48 h
SN12C = test system: SN12C
DU-145 = test system: DU-145
A498 = test system: A498
MOLT-4 = test system: MOLT-4
TK-10 = test system: TK-10
HCC 2998 = test system: HCC 2998
A549 = test system: A549
M14 = test system: M14
SW-620 = test system: SW-620
OVCAR-3 = test system: OVCAR-3
U-251 = test system: U-251
CAKI-1 = test system: CAKI-1
SR = test system: SR
OVCAR-5 = test system: OVCAR-5
BT-549 = test system: BT-549
SK-MEL-28 = test system: SK-MEL-28
SF-539 = test system: SF-539
RXF 393 = test system: RXF 393
786-0 = test system: 786-0
OVCAR-8 = test system: OVCAR-8

Row | SMILES | GI50 (SN12C) | GI50 (DU-145) | GI50 (A498) | GI50 (MOLT-4) | GI50 (TK-10) | GI50 (HCC 2998) | GI50 (A549) | GI50 (M14) | GI50 (SW-620) | GI50 (OVCAR-3) | GI50 (U-251) | GI50 (CAKI-1) | GI50 (SR) | GI50 (OVCAR-5) | GI50 (BT-549) | GI50 (SK-MEL-28) | GI50 (SF-539) | GI50 (RXF 393) | GI50 (786-0) | GI50 (OVCAR-8)
1 | CC(C)[Si]1(C(C)C)OCC2OC(N3C(=O)NC(=O)C[C@@H]3C(O)c3ccccc3)CC2O[Si](C(C)C)(C(C)C)O1 (stereo not given in full) | 3.86 µM (inactive) | 13.2 µM (inactive) | 7.21 µM (inactive) | 2.31 µM (inactive) | 9.89 µM (inactive) | 2.05 µM (inactive) | 11.2 µM (inactive) | 12.7 µM (inactive) | 3.4 µM (inactive) | 4.83 µM (inactive) | 3.24 µM (inactive) | 15.4 µM (inactive) | 1.68 µM (inactive) | 13.5 µM (inactive) | 18.1 µM (inactive) | 4.51 µM (inactive) | 17 µM (inactive) | 5.27 µM (inactive) | 5.93 µM (inactive) | 6.19 µM (inactive)
2 | Cc1c(C#N)c2nnn(-c3ccc(Cl)cc3)c(=O)n2c1-c1ccccc1 | 0.107 µM (active) | 0.0895 µM (active) | 0.124 µM (active) | 0.063 µM (active) | 0.476 µM (active) | 0.0713 µM (active) | 0.166 µM (active) | 0.0608 µM (active) | 0.113 µM (active) | 0.047 µM (active) | 0.0815 µM (active) | 0.251 µM (active) | < 0.0212 µM (active) | 0.247 µM (active) | 0.37 µM (active) | 10.7 µM (inactive) | 0.0492 µM (active) | 0.0764 µM (active) | 0.12 µM (active) | 0.163 µM (active)
3 | COc1ccc(OC)c(CCc2cc(OC)ccc2OC)c1 | 6.98 µM (inactive) | 5.19 µM (inactive) | 4.48 µM (inactive) | 1.91 µM (inactive) | 3.42 µM (inactive) | 3.79 µM (inactive) | 5.28 µM (inactive) | 2.09 µM (inactive) | 0.935 µM (active) | 0.431 µM (active) | 4.81 µM (inactive) | 3.92 µM (inactive) | 0.379 µM (active) | > 8.71 µM (inactive) | > 5.4 µM (inactive) | 3.28 µM (inactive) | 2.07 µM (inactive) | 2.58 µM (inactive) | 3.17 µM (inactive) | 2.86 µM (inactive)
4 | COc1ccc(C2C(C=O)C(N3CCN(C)CC3)=Nc3nc4ccccc4n32)cc1 (stereo not given) | 17.9 µM (inactive) | 17.8 µM (inactive) | 11 µM (inactive) | < 0.01 µM (active) | 14.3 µM (inactive) | 17.7 µM (inactive) | 17.2 µM (inactive) | 17.4 µM (inactive) | 17.3 µM (inactive) | 14.3 µM (inactive) | 17.7 µM (inactive) | 19.1 µM (inactive) | 0.0382 µM (active) | 23.3 µM (inactive) | 14 µM (inactive) | 17 µM (inactive) | 22.1 µM (inactive) | 13.6 µM (inactive) | 20 µM (inactive) | 16.2 µM (inactive)
5 | CC(=O)OCC1OC(N2C(C)=C(C(C)=O)C(c3ccc(Cl)cc3)C(C#N)=C2S)C(OC(C)=O)C(OC(C)=O)C1OC(C)=O (stereo not given) | 85.9 µM (inactive) | 68.5 µM (inactive) | 38.2 µM (inactive) | 18.6 µM (inactive) | 76.9 µM (inactive) | 47.1 µM (inactive) | 49.9 µM (inactive) | 56.8 µM (inactive) | 5.46 µM (inactive) | 61.4 µM (inactive) | 66.5 µM (inactive) | > 100 µM (inactive) | 28.2 µM (inactive) | > 100 µM (inactive) | 62.4 µM (inactive) | 47.1 µM (inactive) | 44.1 µM (inactive) | 52.8 µM (inactive) | 35.6 µM (inactive) | 52.5 µM (inactive)
6 | O=C(/C=C/c1ccccc1)c1ccccc1 [CHALCONE] | > 10 µM (inactive) | > 10 µM (inactive) | > 10 µM (inactive) | 0.938 µM (active) | > 10 µM (inactive) | > 10 µM (inactive) | > 10 µM (inactive) | > 10 µM (inactive) | 3.34 µM (inactive) | > 10 µM (inactive) | > 10 µM (inactive) | > 10 µM (inactive) | > 6.58 µM (inactive) | > 10 µM (inactive) | > 10 µM (inactive) | > 10 µM (inactive) | > 10 µM (inactive) | > 10 µM (inactive) | > 10 µM (inactive) | > 10 µM (inactive)
7 | S=C1SSC2N=CC=CC12 (stereo not given) | > 100 µM (inactive) | > 100 µM (inactive) | 29.9 µM (inactive) | 38.3 µM (inactive) | > 100 µM (inactive) | 24.7 µM (inactive) | 47.1 µM (inactive) | 85.5 µM (inactive) | > 100 µM (inactive) | > 100 µM (inactive) | > 100 µM (inactive) | 19.7 µM (inactive) | 45.4 µM (inactive) | > 100 µM (inactive) | > 100 µM (inactive) | > 100 µM (inactive) | > 100 µM (inactive) | 46.5 µM (inactive) | > 100 µM (inactive) | > 100 µM (inactive)
8 | CC1OC(Oc2c(-c3cc(O)c(O)c(O)c3)oc3cc(O)cc(O)c3c2=O)C(O)C(O)C1O (stereo not given) | > 100 µM (inactive) | > 100 µM (inactive) | > 100 µM (inactive) | > 100 µM (inactive) | > 100 µM (inactive) | > 100 µM (inactive) | > 100 µM (inactive) | > 100 µM (inactive) | > 100 µM (inactive) | > 100 µM (inactive) | > 100 µM (inactive) | > 100 µM (inactive) | 96.8 µM (inactive) | > 100 µM (inactive) | > 100 µM (inactive) | > 100 µM (inactive) | > 100 µM (inactive) | > 100 µM (inactive) | > 100 µM (inactive) | > 100 µM (inactive)
9 | O=C1c2scnc2-c2nccc3c2c1nc1ccccc13 [KUANONIAMINE A] | 1.4 µM (inactive) | 1.6 µM (inactive) | 1.26 µM (inactive) | 0.469 µM (active) | 1.46 µM (inactive) | 1.15 µM (inactive) | 1.51 µM (inactive) | 0.564 µM (active) | 0.288 µM (active) | < 0.0134 µM (active) | 0.268 µM (active) | 1.63 µM (inactive) | 0.137 µM (active) | 2.63 µM (inactive) | 1.25 µM (inactive) | 1.65 µM (inactive) | 0.232 µM (active) | 1.77 µM (inactive) | 1.21 µM (inactive) | 0.226 µM (active)
10 | CC(Oc1ccccc1)C(=O)NNC(=O)OC(C)(C)C (stereo not given) | > 100 µM (inactive) | > 100 µM (inactive) | > 100 µM (inactive) | > 100 µM (inactive) | > 100 µM (inactive) | > 100 µM (inactive) | > 100 µM (inactive) | > 100 µM (inactive) | > 100 µM (inactive) | > 100 µM (inactive) | > 100 µM (inactive) | > 100 µM (inactive) | > 100 µM (inactive) | > 100 µM (inactive) | > 100 µM (inactive) | > 100 µM (inactive) | > 100 µM (inactive) | > 100 µM (inactive) | > 100 µM (inactive) | > 100 µM (inactive)
